10 molecules from patent publication US7947830B2, “Substituted propenyl piperazine derivatives as novel inhibitors of histone deacetylase” (Janssen Pharmaceutica N.V., priority 2004, dated 2011) can be followed below.

Where two headings read alike, the source gives them in different places.

For data set [1], the target named is histone deacetylase (HeLa nuclear extracts). Nature of the data set: In vitro assay for inhibition of histone deacetylase (HDAC Fluorescent Activity Assay, Fluor de Lys). The data set is classed as biochemical. Conditions: Fluor de Lys substrate. The source says: The in vitro assay for inhibition of histone deacetylase (see example C.1) measures the inhibition of HDAC enzymatic activity obtained with the compounds of formula (I).
The HDAC Fluorescent Activity Assay/Drug Discovery Kit of Biomol (cat.No: AK-500-0001) was used. The HDAC Fluorescent Activity Assay is based on the Fluor de Lys (Fluorogenic […] deAcetylase Lysyl) substrate and developer combination. The Fluor de Lys substrate, comprises an acetylated lysine side chain. Deacetylation of the substrate sensitizes the substrate so that, in the second step, treatment with the Fluor de Lys developer produces a fluorophore.
After 30 min, 1 volume of the developer was added. […] For each experiment, controls (containing HeLa nuclear extract and buffer), a blank incubation (containing buffer but no HeLa nuclear extract) and samples (containing compound dissolved in DMSO and further diluted in buffer and HeLa nuclear extract) were run in parallel. […] All sample were tested 4 times. In each test the blank value was substracted from both the control and the sample values. The control sample represented 100% of substrate deactylation. For each sample the fluorescence was expressed as a percentage of the mean value of the controls. […] Herein the effects of test compounds are expressed as pIC50 (the negative log value of the IC50-value) (see Table F-3).

Data set [2] concerns A2780 ovarian carcinoma cells. Nature of the data set: Antiproliferative activity on A2780 cells (MTT). To be noted: Homo sapiens, A2780, 96 h, four days of incubation, read-out: Cellular activity pIC50 C.2. (converted). Format: cell-based, human. The method, then: Cellular activity of the compounds of formula (I) was determined on A2780 tumour cells using a […] assay for cell toxicity or survival (Mosmann Tim, Journal of Immunological Methods 65: 55-63, 1983)(see example C.2).
All compounds tested were dissolved in DMSO and further dilutions were made in culture medium. Final DMSO concentrations never exceeded 0.1% (v/v) in cell proliferation assays. Controls contained A2780 cells and DMSO without compound and blanks contained DMSO but no cells. MTT was dissolved at 5 mg/ml in PBS. A glycine buffer comprised of 0.1 M glycine and 0.1 M NaCl buffered to pH 10.5 with NaOH (1 N) was prepared (all reagents were from Merck).
The human A2780 ovarian carcinoma cells (a kind gift from Dr. T. C. Hamilton [Fox Chase Cancer Centre, Pennsylvania, USA]) were cultured in RPMI 1640 medium supplemented with 2 mM L-glutamine, 50 μg/ml gentamicin and 10% fetal calf serum.
Cells were routinely kept as monolayer cultures at 37° C. in a humidified 5% CO2 atmosphere. Cells were passaged once a week using a trypsin/EDTA solution at a split ratio of 1:40. All media and supplements were obtained from Life Technologies. Cells were free of mycoplasma contamination as determined using the Gen-Probe Mycoplasma Tissue Culture kit (supplier: BioMérieux).
Cells were seeded in NUNC™ 96-well culture plates (Supplier: Life Technologies) and allowed to adhere to the plastic overnight. Densities used for plating were 1500 cells per well in a total volume of 200 μl medium. After cell adhesion to the plates, medium was changed and drugs and/or solvents were added to a final volume of 200 μl. Following four days of incubation, medium was replaced by 200 μl fresh medium and cell density and viability was assessed using an MTT-based assay. To each well, 25 μl […] solution was added and the cells were further incubated for 2 hours at 37° C. The medium was then carefully aspirated and the blue MTT-formazan product was solubilized by addition of 25 μl glycine buffer followed by 100 μl of DMSO. […] Within an experiment, the results for each experimental condition are the mean of 3 replicate wells. For initial screening purposes, compounds were tested at a single fixed concentration of 10^−6 M. For active compounds, the experiments were repeated to establish full concentration-response curves. For each experiment, controls (containing no drug) and a blank incubation (containing no cells or drugs) were run in parallel. The blank value was subtracted from all control and sample values. For each sample, the mean value for cell growth (in absorbance units) was expressed as a percentage of the mean value for cell growth of the control. […] Herein the effects of test compounds are expressed as pIC50 (the negative log value of the IC50-value)(see Table F-3).

Test in data set [3]: not given
The source holds these as a separate data set.

Data set [4] has as its system p21 promoter reporter A2780 tumour in nude mice. Nature of the data set: p21 promoter induction in vivo method, tumour fluorescence (C.6.c). To be noted: oral administration, daily during 6 days, 20-40 mpk. On the procedure:
Another method tests the capacity of compounds to induce p21 as the consequence of HDAC inhibition at the cellular level. […] The reporter gene is a fluorescent protein and the expression of the reporter gene is measured as the amount of fluorescent light emitted (see example C.6.b.). The last method is an in vivo method wherein mice are used for screening the pharmaceutical activity of a compound. The above described stably transformed tumour cells can be administered to mice in an amount sufficient to effect production of a tumour. After the tumour cells had sufficient time to form a tumour, a potentially active compound can be administered to the animals and the effect of said compound on the tumour cells is evaluated by measuring the expression of the reporter gene. Incubation with pharmaceutical active compounds will result in an increase of reporter gene expression compared to the control levels (see example C.6.c.)
A selected clone was injected subcutaneous (10^7 cells/200 μl) into the flank of nude mice and a calliper measurable tumour was obtained after 12 days. […] Tumours were evaluated for fluorescence by the in-house developed Automated Whole Body Imaging System (Fluorescent stereomicroscope type Olympus® SZX12 equipped with a GFP filter and coupled to a CCD camera type JAI® CV-M90 controlled by a software package based on the IMAQ Vision Software from National Instruments®). […]

A short description of data set [5]: Kinetic solubility in aqueous media (nephelometer, C.3.a). Format: physicochemical. Conditions: aqueous buffer, kinetic from dmso stock; score; phosphate citrate buffer pH 7.4, turbidity. On the procedure:
The solubility of a compound measures the ability of a compound to stay in solution. In a first method the ability of a compound to stay in aqueous solution upon dilution (see example C.3.a) is measured. DMSO-stock solutions are diluted with a single aqueous buffer solvent in 3 consecutive steps. For every dilution turbidity is measured with a nephelometer.
In the first dilution step, 10 μl of a concentrated stock-solution of the active compound, solubilized in DMSO (5 mM), was added to 100 μl phosphate citrate buffer pH 7.4 and mixed. In the second dilution step, an aliquot (20 μl) of the first dilution step was further dispensed in 100 μl phosphate citrate buffer pH 7.4 and mixed. Finally, in the third dilution step, a sample (20 μl) of the second dilution step was further diluted in 100 μl phosphate citrate buffer pH 7.4 and mixed. All dilutions were performed in 96-well plates. Immediately after the last dilution step the turbidity of the three consecutive dilution steps were measured with a nephelometer. Dilution was done in triplicate for each compound to exclude occasional errors. Based on the turbidity measurements a ranking is performed into 3 classes. Compounds with high solubility obtained a score of 3 and for this compounds the first dilution is clear. Compounds with medium solubility obtained a score of 2. For these compounds the first dilution is unclear and the second dilution is clear.

A short description of data set [6]: Metabolic stability with rat hepatocytes cell culture (C.5.b). Format: in vitro ADME. To be noted: 5 μM. The text has this: Metabolism of drugs means that a lipid-soluble xenobiotic or endobiotic compound is enzymatically transformed into (a) polar, water-soluble, and excretable metabolite(s). The major organ for drug metabolism is the liver. […] However, some metabolites may have enhanced activity or toxic effects. Thus drug metabolism may include both “detoxication” and “toxication” processes. One of the major enzyme systems that determine the organism's capability of dealing with drugs and chemicals is represented by the cytochrome P450 monooxygenases, which are NADPH dependent enzymes. Metabolic stability of compounds can be determined in vitro with the use of subcellular human tissue (see example C.5.a.). Here metabolic stability of the compounds is expressed as % of drug metabolised after 15 minutes incubation of these compounds with microsomes. Quantitation of the compounds was determined by LC-MS analysis. Metabolic stability of compounds can also be determined by calculating the half live of compounds in rat hepatocyte cells (see example C.5.b.). […]
Samples were prepared for LC-MS by addition of two volumes of DMSO. […] Of the resulting supernatant 50 μl was analysed by LC-MS. […]
Total injection volume of samples was 50 μL. […] The mass spectrometer was operated in positive ion mode in SIM adjusted to the mass of M+H with a scan width of 1 Da for quantification purposes. […]

Turning to `COc1cc(N)c(Cl)cc1C(=O)NC1CCN(CCCOc2ccc(F)cc2)CC1OC` (stereo not drawn) [Cisapride], the “% metabolism” value (human, 15 min, 5 μM) was found to be 45%.

Take `O=C(NO)c1cnc(N2CCN(C(/C=C/c3ccccc3)CO)CC2)nc1` (stereo not drawn) [Compound 1]: the “Enzymatic activity pIC50 C.1.” value in data set [1] turned out to be 8.2. In addition, the IC50 in data set [2] was 12.6 nM. Besides, the melting point (commonly the temperature, or range, at which the solid turns liquid) in data set [3] was 187 °C. The “tumour fluorescence ranked relative to R306465” value in data set [4] is reported as “better than R306465”. Further, the solubility (in general, the dissolved amount per volume that the medium holds) in data set [5] was > 455 µM.

On to `O=C(NO)c1cnc(N2CCN(C(/C=C/c3ccc(Cl)cc3)CN3CCOCC3)CC2)nc1` (stereo not drawn) [Compound 2], for which the “Enzymatic activity pIC50 C.1.” value in data set [1] worked out at 7.4. In data set [2], the IC50 was 316 nM. Moreover, the solubility in data set [5] was > 455 µM.

As to `COc1ccc(/C=C/C(CO)N2CCN(c3ncc(C(=O)NO)cn3)CC2)cc1` (stereo not drawn) [Compound 3], the “Enzymatic activity pIC50 C.1.” value in data set [1] was 8.1. Further, in data set [2], the IC50 is 31.6 nM. Further, the solubility in data set [5] was > 455 µM.

As for `O=C(NO)c1cnc(N2CCN(C(/C=C/c3ccc(Cl)cc3)CO)CC2)nc1` (stereo not drawn) [Compound 4], in data set [1], the “Enzymatic activity pIC50 C.1.” value is on record as 8.2. Moreover, the IC50 in data set [2] was 31.6 nM. The in vitro half-live in data set [6] came to 23 min. The solubility in data set [5] is > 455 µM.

Turning to `O=C(NO)c1cnc(N2CCN(C(/C=C/c3ccc(-c4ccccc4)cc3)CO)CC2)nc1` (stereo not drawn) [Compound 5], the “Enzymatic activity pIC50 C.1.” value in data set [1] worked out at 7.9. In data set [2], the IC50 is 39.8 nM. For the same molecule, in data set [5], the solubility was < 76 µM.

Consider `O=C(NO)c1cnc(N2CCN(C(/C=C/c3ccc(C(F)(F)F)cc3)CO)CC2)nc1` (stereo not drawn) [Compound 6], for which the “Enzymatic activity pIC50 C.1.” value in data set [1] was 7.6. The IC50 in data set [2] is 39.8 nM. Further, the solubility in data set [5] is > 455 µM.

In the case of `O=C(NO)c1cnc(N2CCN(C(/C=C/c3ccccc3)C(=O)NC3CC3)CC2)nc1` (stereo not drawn) [Compound 15], the “Enzymatic activity pIC50 C.1.” value in data set [1] was determined as 7.6. In data set [2], the IC50 is 100 nM. Also, the solubility in data set [5] was > 455 µM.

In data set [6], `O=C(NO)c1cnc(N2CCN(S(=O)(=O)c3ccc4ccccc4c3)CC2)nc1` [Compound R306465, reference compound] gave an in vitro half-live of 8 min.

Regarding `CCCO` [propanol], under “after 15 min incubation with active microsomes, compound 5 μM”, the “% metabolism” value is recorded as 25%.
